Assay results as given in PMC5007552, “The hVps34‐SGK3 pathway alleviates sustained PI3K/Akt inhibition by stimulating mTORC1 and tumour growth” (The EMBO Journal, 2016).
Several values for one entry are separate records, joined by “and”; a condition that tells them apart may be missing. Identical values can stand only once.

Test system: ZR-75-1 cells
Test: NanoString human kinome mRNA quantification
Format: cell-based
Description: Human mRNAs were hybridised to NanoString human kinome and control code sets, then subjected to quantification using NanoString software. […] To permit data compaction, and simple kinome‐wide comparisons, the fold changes are log2 transformed. […] Cell pellets were resuspended at a concentration of ~6,500 cells/μl in RLT buffer (Qiagen). […] For total copy numbers, triplicate normalised count values were averaged, and to calculate fold induction, means were divided by triplicate mean values from matched DMSO controls. P‐values were calculated using unpaired t‐test (GraphPad Prism software) by employing treated and control count data for each kinase mRNA.

NC1(c2ccc(-c3nc4ccn5c(=O)[nH]nc5c4cc3-c3ccccc3)cc2)CCC1 [MK-2206]
CDK18 normalised counts (replicates) (CDK18 mRNA): 93.28 and 102.4 and 103.9
CDK19 average normalised counts (CDK19 mRNA): 336.707
CDK19 normalised counts (replicates) (CDK19 mRNA): 340.52 and 347.39 and 322.21
CDK20 average normalised counts (CDK20 mRNA): 89.7167
CDK20 normalised counts (replicates) (CDK20 mRNA): 106.01 and 80.68 and 82.46
CDKL1 average normalised counts (CDKL1 mRNA): 1
CDKL1 normalised counts (replicates) (CDKL1 mRNA): 1
CDKL2 average normalised counts (CDKL2 mRNA): 5.853
CDKL2 normalised counts (replicates) (CDKL2 mRNA): 6.93 and 5.97 and 4.66
CDKL3 average normalised counts (CDKL3 mRNA): 93.1667
CDKL3 normalised counts (replicates) (CDKL3 mRNA): 98.74 and 82.42 and 98.34
CDKL4 average normalised counts (CDKL4 mRNA): 49.8833
CDKL4 normalised counts (replicates) (CDKL4 mRNA): 49.65 and 57.23 and 42.77
CDKL5 average normalised counts (CDKL5 mRNA): 46.4467
CDKL5 normalised counts (replicates) (CDKL5 mRNA): 46.93 and 52.02 and 40.39
CHEK1 average normalised counts (CHEK1 mRNA): 416.797
CHEK1 normalised counts (replicates) (CHEK1 mRNA): 440.51 and 390.82 and 419.06
CHEK2 average normalised counts (CHEK2 mRNA): 813.71
CHEK2 normalised counts (replicates) (CHEK2 mRNA): 824.09 and 812.16 and 804.88
CHUK average normalised counts (CHUK mRNA): 732.773
CHUK normalised counts (replicates) (CHUK mRNA): 715.01 and 761.78 and 721.53
CIT average normalised counts (CIT mRNA): 394.403
CIT normalised counts (replicates) (CIT mRNA): 393.24 and 389.96 and 400.01
CLK1 average normalised counts (CLK1 mRNA): 994.453
CLK1 normalised counts (replicates) (CLK1 mRNA): 974.07 and 1043.25 and 966.04
CLK2 average normalised counts (CLK2 mRNA): 1169.5
CLK2 normalised counts (replicates) (CLK2 mRNA): 1152.23 and 1182.25 and 1174.03
CLK3 average normalised counts (CLK3 mRNA): 710.143
CLK3 normalised counts (replicates) (CLK3 mRNA): 731.38 and 705.31 and 693.74
CLK4 average normalised counts (CLK4 mRNA): 709.387
CLK4 normalised counts (replicates) (CLK4 mRNA): 719.56 and 687.07 and 721.53
COL4A3BP average normalised counts (COL4A3BP mRNA): 420.653
COL4A3BP normalised counts (replicates) (COL4A3BP mRNA): 415.06 and 433.39 and 413.51
CPNE3 normalised counts (replicates) (CPNE3 mRNA): 2313.35
CSF1R average normalised counts (CSF1R mRNA): 1
CSF1R normalised counts (replicates) (CSF1R mRNA): 1
CSK average normalised counts (CSK mRNA): 629.517
CSK normalised counts (replicates) (CSK mRNA): 633.21 and 603.67 and 651.67
CSNK1A1L average normalised counts (CSNK1A1L mRNA): 2.067
CSNK1A1L normalised counts (replicates) (CSNK1A1L mRNA): 4.2 and 1 (2×)
CSNK1A1 average normalised counts (CSNK1A1 mRNA): 854.287
CSNK1A1 normalised counts (replicates) (CSNK1A1 mRNA): 855.9 and 833.01 and 873.95
CSNK1D average normalised counts (CSNK1D mRNA): 6324.07
CSNK1D normalised counts (replicates) (CSNK1D mRNA): 6300.6 and 6273.94 and 6397.68
CSNK1E average normalised counts (CSNK1E mRNA): 1485.08
CSNK1E normalised counts (replicates) (CSNK1E mRNA): 1520.36 and 1448.08 and 1486.81
Average normalised counts (CSNK1G1 mRNA): 1243.9
Normalised counts (CSNK1G1 mRNA, single replicates): 1266.76 and 1245.67 and 1219.28
Average normalised counts (CSNK1G2 mRNA): 674.087
Normalised counts (CSNK1G2 mRNA, single replicates): 671.38 and 671.43 and 679.45
Average normalised counts (CSNK1G3 mRNA): 1032.23
Normalised counts (CSNK1G3 mRNA, single replicates): 1024.97 and 1049.33 and 1022.4
Average normalised counts (CSNK2A1 mRNA): 568.443
Normalised counts (CSNK2A1 mRNA, single replicates): 546.86 and 575.87 and 582.6
Average normalised counts (CSNK2A2 mRNA): 157.413
Normalised counts (CSNK2A2 mRNA, single replicates): 146.91 and 157.13 and 168.2
Average normalised counts (DAPK1 mRNA): 21.41
Normalised counts (DAPK1 mRNA, single replicates): 22.38 and 18.13 and 23.72
Average normalised counts (DAPK2 mRNA): 44.4967
Normalised counts (DAPK2 mRNA, single replicates): 37.84 and 52.88 and 42.77
Average normalised counts (DCLK1 mRNA): 64.6967
Normalised counts (DCLK1 mRNA, single replicates): 61.47 and 58.1 and 74.52
Average normalised counts (DCLK2 mRNA): 1
Normalised counts (DCLK2 mRNA, single replicates): 1
Average normalised counts (DCLK3 mRNA): 1
Normalised counts (DCLK3 mRNA, single replicates): 1
Normalised counts (DDR1 mRNA, single replicates): 2268.77
Average normalised counts (DDR2 mRNA): 24.12
Normalised counts (DDR2 mRNA, single replicates): 24.2 and 26.82
Average normalised counts (DMPK mRNA): 79.4267
Normalised counts (DMPK mRNA, single replicates): 89.65 and 78.08 and 70.55
Average normalised counts (DSTYK mRNA): 288.937
Normalised counts (DSTYK mRNA, single replicates): 315.98 and 310.3
Average normalised counts (DYRK1A mRNA): 1263.91
Normalised counts (DYRK1A mRNA, single replicates): 1248.58 and 1277.81 and 1265.33
Average normalised counts (DYRK1B mRNA): 113.827
Normalised counts (DYRK1B mRNA, single replicates): 104.19 and 111.96 and 125.33
Average normalised counts (DYRK2 mRNA): 852.053
Normalised counts (DYRK2 mRNA, single replicates): 855.9 and 810.43 and 889.83
Average normalised counts (DYRK3 mRNA): 83.6267
Normalised counts (DYRK3 mRNA, single replicates): 80.56 and 90.24 and 80.08
Average normalised counts (DYRK4 mRNA): 50.6933
Normalised counts (DYRK4 mRNA, single replicates): 52.38 and 53.75 and 45.95
Average normalised counts (EEF2K mRNA): 449.027
Normalised counts (EEF2K mRNA, single replicates): 425.05 and 457.72 and 464.31
Average normalised counts (EGFR mRNA): 78.07
Normalised counts (EGFR mRNA, single replicates): 75.1 and 79.82 and 79.29
Average normalised counts (EIF2AK1 mRNA): 3890.11
Normalised counts (EIF2AK1 mRNA, single replicates): 3762.77 and 3749.38 and 4158.18
Average normalised counts (EIF2AK2 mRNA): 387.137
Normalised counts (EIF2AK2 mRNA, single replicates): 351.43 and 373.45 and 436.53
Average normalised counts (EIF2AK3 mRNA): 167.45
Normalised counts (EIF2AK3 mRNA, single replicates): 158.73 and 166.69 and 176.93
Average normalised counts (EIF2AK4 mRNA): 999.56
Normalised counts (EIF2AK4 mRNA, single replicates): 986.79 and 999.81 and 1012.08
Average normalised counts (EPHA1 mRNA): 298.103
Normalised counts (EPHA1 mRNA, single replicates): 293.25 and 307.43 and 293.63
Average normalised counts (EPHA2 mRNA): 98.1433
Normalised counts (EPHA2 mRNA, single replicates): 101.46 and 85.9 and 107.07
Average normalised counts (EPHA3 mRNA): 1
Normalised counts (EPHA3 mRNA, single replicates): 1
Average normalised counts (EPHA4 mRNA): 54.0467
Normalised counts (EPHA4 mRNA, single replicates): 47.83 and 66.78 and 47.53
Average normalised counts (EPHA5 mRNA): 2.657
Normalised counts (EPHA5 mRNA, single replicates): 2.39 and 2.5 and 3.08
Average normalised counts (EPHA6 mRNA): 46.39
Normalised counts (EPHA6 mRNA, single replicates): 39.65 and 42.46 and 57.06
Average normalised counts (EPHA7 mRNA): 9.993
Normalised counts (EPHA7 mRNA, single replicates): 14.2 and 10.32 and 5.46
Average normalised counts (EPHA8 mRNA): 2.44
Normalised counts (EPHA8 mRNA, single replicates): 4.2 and 1.63 and 1.49
Average normalised counts (EPHA10 mRNA): 29.9233
Normalised counts (EPHA10 mRNA, single replicates): 36.93 and 25.95 and 26.89
Average normalised counts (EPHB1 mRNA): 2.73
Normalised counts (EPHB1 mRNA, single replicates): 4.2 and 2.5
Average normalised counts (EPHB2 mRNA): 16.0233
Average normalised counts (EPHB3 mRNA): 206.547
Average normalised counts (EPHB4 mRNA): 1166.85
Average normalised counts (EPHB6 mRNA): 2.217
Average normalised counts (ERBB2 mRNA): 3923.04
Average normalised counts (ERBB3 mRNA): 1260.11
Average normalised counts (ERBB4 mRNA): 408.193
Average normalised counts (ERN1 mRNA): 386.247
Average normalised counts (ERN2 mRNA): 2.483
Average normalised counts (FASTK mRNA): 67.2133
Average normalised counts (FASTKD1 mRNA): 614.733
Average normalised counts (FASTKD2 mRNA): 563.933
Average normalised counts (FASTKD3 mRNA): 173.083
Average normalised counts (FASTKD5 mRNA): 437.597
Average normalised counts (FER mRNA): 455.723
Average normalised counts (FES mRNA): 1.427
Average normalised counts (FGFR1 mRNA): 1112.53
Average normalised counts (FGFR2 mRNA): 189.803
Average normalised counts (FGFR3 mRNA): 1392.79
Average normalised counts (FGFR4 mRNA): 1462.07
Average normalised counts (FGFRL1 mRNA): 1225.18
Average normalised counts (FGR mRNA): 1
Average normalised counts FLJ25006 (FLJ25006 mRNA, average of 3 replicates): 106.973
Normalised counts FLJ25006 (FLJ25006 mRNA, single replicates): 105.1 and 102.4 and 113.42
Average normalised counts FLT1 (FLT1 mRNA, average of 3 replicates): 1
Normalised counts FLT1 (FLT1 mRNA, single replicates): 1
Average normalised counts FLT3 (FLT3 mRNA, average of 3 replicates): 149.337
Normalised counts FLT3 (FLT3 mRNA, single replicates): 146.91 and 161.48 and 139.62
Average normalised counts FLT4 (FLT4 mRNA, average of 3 replicates): 1.957
Normalised counts FLT4 (FLT4 mRNA, single replicates): 1 (2×) and 3.87
Average normalised counts FRK (FRK mRNA, average of 3 replicates): 160.35
Normalised counts FRK (FRK mRNA, single replicates): 165.09 and 158.87 and 157.09
Average normalised counts FYN (FYN mRNA, average of 3 replicates): 5.563
Normalised counts FYN (FYN mRNA, single replicates): 5.11 and 7.71 and 3.87
Average normalised counts GAK (GAK mRNA, average of 3 replicates): 673.637
Normalised counts GAK (GAK mRNA, single replicates): 641.39 and 690.54 and 688.98
Average normalised counts GRK1 (GRK1 mRNA, average of 3 replicates): 10.12
Normalised counts GRK1 (GRK1 mRNA, single replicates): 8.75 and 4.24 and 17.37
Average normalised counts GRK4 (GRK4 mRNA, average of 3 replicates): 59.8967
Normalised counts GRK4 (GRK4 mRNA, single replicates): 59.65 and 50.28 and 69.76
Normalised counts GRK5 (GRK5 mRNA, single replicates): 18.75 and 22.48 and 22.13
Average normalised counts GRK7 (GRK7 mRNA, average of 3 replicates): 1.957
Normalised counts GRK7 (GRK7 mRNA, single replicates): 1 (2×) and 3.87
Average normalised counts GSG2 (GSG2 mRNA, average of 3 replicates): 390.143
Normalised counts GSG2 (GSG2 mRNA, single replicates): 395.97 and 394.3 and 380.16
Average normalised counts GSK3A (GSK3A mRNA, average of 3 replicates): 3191.73
Normalised counts GSK3A (GSK3A mRNA, single replicates): 3156.49 and 3192.52 and 3226.18
Average normalised counts GSK3B (GSK3B mRNA, average of 3 replicates): 4035
Normalised counts GSK3B (GSK3B mRNA, single replicates): 3944.57 and 4049.09 and 4111.34
Average normalised counts GUCY2C (GUCY2C mRNA, average of 3 replicates): 1
Normalised counts GUCY2C (GUCY2C mRNA, single replicates): 1
Average normalised counts GUCY2D (GUCY2D mRNA, average of 3 replicates): 5.627
Normalised counts GUCY2D (GUCY2D mRNA, single replicates): 6.02 and 8.58 and 2.28
Average normalised counts GUCY2F (GUCY2F mRNA, average of 3 replicates): 1.693
Normalised counts GUCY2F (GUCY2F mRNA, single replicates): 1 (2×) and 3.08
Average normalised counts HCK (HCK mRNA, average of 3 replicates): 1.533
Normalised counts HCK (HCK mRNA, single replicates): 1.48 and 1.63 and 1.49
Average normalised counts HIPK1 (HIPK1 mRNA, average of 3 replicates): 582.127
